These results are taken from US9296693B2, “Acyl piperidine inhibitors of soluble epoxide hydrolase” (The Regents of the University of California, priority 2010, dated 2016).

One series has as its target murine sEH (Mus musculus (Mouse), UniProt P34914). Kind of series: fluorescent based IC50 assay (CMNPC substrate), recombinant murine sEH. Format: biochemical. The settings on record: homogenous recombinant murine sEH 1 nM, CMNPC 5 μM, pH 7.0, 30° C., average of three replicates.
Series [1] can be described thus: Log P determination by HPLC method (OECD guideline 117). Format: physicochemical. To be noted: octanol/water; read-out: log P (±0.5).
Protocol: Log P and purity analyses were performed using a Hewlett Packard 1100 HPLC equipped with a diode array detector. A Phenomenex Luna 150 mm×4.6 mm, 5 μm, C-18 column was used for all HPLC analyses.
The target in another series is Human sEH (Homo sapiens (Human), UniProt P34913). Kind of series: fluorescent based IC50 assay (CMNPC substrate), recombinant human sEH.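 Note: enzyme preincubated with inhibitor for 5 min before adding substrate, in 25 mM Bis-Tris/HCl buffer supplemented with 0.1 mg/mL BSA.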 The settings on record: read-out: IC50 (nM) Human; homogenous recombinant human sEH 1 nM, CMNPC 5 μM, pH 7.0, 30° C., average of three replicates.
Chain of Human sEH (P34913 whole entry): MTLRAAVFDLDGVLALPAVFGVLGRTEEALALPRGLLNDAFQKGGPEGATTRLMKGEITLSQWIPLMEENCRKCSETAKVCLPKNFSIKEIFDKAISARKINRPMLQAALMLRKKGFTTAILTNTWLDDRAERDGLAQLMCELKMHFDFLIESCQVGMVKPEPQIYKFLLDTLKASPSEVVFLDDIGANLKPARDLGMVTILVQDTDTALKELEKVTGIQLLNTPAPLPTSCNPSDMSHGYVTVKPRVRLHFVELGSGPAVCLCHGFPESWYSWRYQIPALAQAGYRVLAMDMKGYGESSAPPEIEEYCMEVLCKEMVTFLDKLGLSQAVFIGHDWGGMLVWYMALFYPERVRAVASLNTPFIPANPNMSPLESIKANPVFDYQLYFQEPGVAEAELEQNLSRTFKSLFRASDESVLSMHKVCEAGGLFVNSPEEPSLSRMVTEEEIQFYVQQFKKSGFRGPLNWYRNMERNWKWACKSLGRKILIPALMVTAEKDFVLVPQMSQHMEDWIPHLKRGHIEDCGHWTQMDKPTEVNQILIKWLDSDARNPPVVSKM
Series [2] is described as follows: log P by shake flask method (OECD guideline 107). Format: physicochemical.
A short description of series [3]: Pharmacokinetic screening of selected haloalkyl-phenyl ureas, blood profiles. Format: in vivo. To be noted: whole blood.

“And” between values parts separate entries of the source, which are not always exact repeats. Equal values may be shown once.

Chain of murine sEH (P34914 whole entry): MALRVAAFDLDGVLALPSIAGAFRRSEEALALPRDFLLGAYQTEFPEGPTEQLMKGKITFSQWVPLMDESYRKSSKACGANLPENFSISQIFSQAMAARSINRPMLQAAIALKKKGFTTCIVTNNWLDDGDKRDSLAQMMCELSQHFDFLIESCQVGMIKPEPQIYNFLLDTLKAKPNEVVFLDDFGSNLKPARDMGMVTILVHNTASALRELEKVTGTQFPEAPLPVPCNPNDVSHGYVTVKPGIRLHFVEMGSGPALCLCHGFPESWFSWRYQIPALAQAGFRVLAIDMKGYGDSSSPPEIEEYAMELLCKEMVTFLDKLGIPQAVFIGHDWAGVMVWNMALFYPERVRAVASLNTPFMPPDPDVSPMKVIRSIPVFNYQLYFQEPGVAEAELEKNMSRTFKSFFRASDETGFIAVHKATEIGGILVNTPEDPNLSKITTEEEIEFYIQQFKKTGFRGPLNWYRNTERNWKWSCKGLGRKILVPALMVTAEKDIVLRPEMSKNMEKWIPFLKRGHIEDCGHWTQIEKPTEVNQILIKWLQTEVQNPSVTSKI

For `CCC(=O)N1CCC(NC(=O)Nc2cccnc2)CC1` [Compound 9, 1-(1-Propionylpiperidin-4-yl)-3-(pyridin-3-yl)urea], the IC50 – broadly, the midpoint of a concentration-inhibition curve – on murine sEH was > 5000 nM and 12000 nM; on Human sEH, 3800 nM. Further, the chromatographic logP in series [1] was under 0.
For `CCC(=O)N1CCC(NC(=O)Nc2ccc(F)cc2)CC1` [Compound 24, 1-(4-Fluorophenyl)-3-(1-propionylpiperidin-4-yl)urea], the results for the IC50 at murine sEH and on Human sEH were 110 nM and 79 nM, respectively. The lipophilicity (log P) – broadly, the decadic logarithm of the partition coefficient of the neutral form, usually between octanol and water – in series [2] was 1.9.
Taken in the same sequence, the figures for `O=C(Nc1ccc(OC(F)(F)F)cc1)NC1CCN(C(=O)c2cc(O)c(O)c(O)c2)CC1` [Compound 54, 1-(4-(Trifluoromethoxy)phenyl)-3-(1-(3,4,5-trihydroxybenzoyl)piperidin-4-yl)urea] were 2.7 nM, 0.5 nM and 2.3.
`O=C(Nc1ccc(OC(F)(F)F)cc1)NC1CCN(S(=O)(=O)c2ccccc2)CC1` [Compound 57, 1-(1-(Phenylsulfonyl)piperidin-4-yl)-3-(4-(trifluoromethoxy)phenyl)urea]: the results for the IC50 on murine sEH and at Human sEH were 0.4 nM and 1.8 nM, respectively.
As for `O=C(Nc1ccc(C(F)(F)F)cc1)NC1CCN(C(=O)C2CC2)CC1` [Compound 61, 1-(1-cyclopropanecarbonylpiperidin-4-yl)-3-(4-(trifluoromethyl)phenyl)urea], in series [3], the AUC (in general, the area under the concentration-time curve, a measure of exposure) was 170 µM·h; the peak level (Cmax) was 10.2 µM; the time to peak (Tmax) (usually the time at which the peak concentration occurs) worked out at 4 h; the half-life (as a rule, how long it takes for the measured level to halve) was 10.6 h.
Taken in the same sequence, the figures for `CCC(C)C(=O)N1CCC(NC(=O)Nc2ccc(C(F)(F)F)cc2)CC1` (stereo not drawn) [Compound 64, 1-(1-(2-methylbutyryl)piperidin-4-yl)-3-(4-(trifluoromethyl)phenyl)urea] were 3.9 µM·h, 4 µM, 4 h and 2.5 h.
Consider `CCCCS(=O)(=O)N1CCC(NC(=O)Nc2ccc(C(F)(F)F)cc2)CC1` [Compound 69, 1-(1-(butylsulfonyl)piperidin-4-yl)-3-(4-(trifluoromethyl)phenyl)urea], for which, in series [3], the AUC is 15.5 µM·h, the highest concentration (Cmax) (usually the maximum level reached in the sampled fluid or tissue) was 1.7 µM, the time to peak (Tmax) came out at 1 h and the half-life was 4.5 h.
Taken in the same sequence, the figures for `O=C(Nc1ccc(C(F)(F)F)cc1)NC1CCN(S(=O)(=O)C2CC2)CC1` [Compound 70, 1-(1-(cyclopropylsulfonyl)piperidin-4-yl)-3-(4-(trifluoromethyl)phenyl)urea] were 167 µM·h, 10.9 µM, 4 h and 11.9 h.
